Laboratory results reported in US11254686B1 (Corvus Pharmaceuticals, Inc., priority 2017, dated 2022).

Tests used:
adenosine A2B receptor = adenosine A2B receptor (Homo sapiens (Human), UniProt P29275); assay: Adenosine receptor activity assay (Table 1), A2B activity; type: biochemical; settings: for Ratio: A2A activity to A2B activity (A2A/A2B); for IC50: read-out: Ave A2B cAMP IC50
adenosine A2A receptor = adenosine A2A receptor (Homo sapiens (Human), UniProt P29274); assay: Adenosine receptor activity assay (Table 1), A2A activity; type: biochemical; settings: read-out: Ave A2A cAMP IC50
adenosine A1 receptor = adenosine A1 receptor (Homo sapiens (Human), UniProt P30542); assay: Adenosine receptor activity assay (Table 1), A1 cAMP; type: cell-based
adenosine A3 receptor = adenosine A3 receptor (Homo sapiens (Human), UniProt P0DMS8); assay: Adenosine receptor activity assay (Table 1), A3 cAMP; type: cell-based
[1] = test system: CYP 450 (isoform not given); assay: CYP450 inhibition at 10 μM; type: in vitro ADME; settings: read-out: CYP 450 % INH @ 10 μM
[2] = Hepatocyte intrinsic clearance, rat; type: in vitro ADME; settings: hepatocytes
[3] = Hepatocyte intrinsic clearance, human; type: in vitro ADME; settings: hepatocytes
[4] = Liver microsome intrinsic clearance (LM CLint), rat; type: in vitro ADME
[5] = Liver microsome intrinsic clearance (LM CLint), human; type: in vitro ADME

Chain of adenosine A2B receptor (P29275 whole entry): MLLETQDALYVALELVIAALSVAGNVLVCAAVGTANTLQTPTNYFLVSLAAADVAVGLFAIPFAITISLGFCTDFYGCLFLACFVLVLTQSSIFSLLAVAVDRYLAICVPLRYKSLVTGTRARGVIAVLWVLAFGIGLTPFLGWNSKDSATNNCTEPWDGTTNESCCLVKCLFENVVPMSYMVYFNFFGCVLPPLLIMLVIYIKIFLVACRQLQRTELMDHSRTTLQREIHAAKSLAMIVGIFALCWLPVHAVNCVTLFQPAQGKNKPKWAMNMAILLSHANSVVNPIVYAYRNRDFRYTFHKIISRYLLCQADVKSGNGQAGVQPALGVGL
Chain of adenosine A3 receptor (P0DMS8 whole entry, canonical isoform): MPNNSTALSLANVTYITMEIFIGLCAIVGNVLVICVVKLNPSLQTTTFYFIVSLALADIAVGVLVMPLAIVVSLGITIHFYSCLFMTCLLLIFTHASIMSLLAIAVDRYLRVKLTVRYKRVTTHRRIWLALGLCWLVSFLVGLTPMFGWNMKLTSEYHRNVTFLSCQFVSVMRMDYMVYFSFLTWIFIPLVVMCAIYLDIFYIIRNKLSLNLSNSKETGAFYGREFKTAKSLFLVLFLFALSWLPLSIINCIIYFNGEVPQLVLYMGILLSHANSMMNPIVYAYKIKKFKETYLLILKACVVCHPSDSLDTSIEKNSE
Chain of adenosine A2A receptor (P29274 whole entry): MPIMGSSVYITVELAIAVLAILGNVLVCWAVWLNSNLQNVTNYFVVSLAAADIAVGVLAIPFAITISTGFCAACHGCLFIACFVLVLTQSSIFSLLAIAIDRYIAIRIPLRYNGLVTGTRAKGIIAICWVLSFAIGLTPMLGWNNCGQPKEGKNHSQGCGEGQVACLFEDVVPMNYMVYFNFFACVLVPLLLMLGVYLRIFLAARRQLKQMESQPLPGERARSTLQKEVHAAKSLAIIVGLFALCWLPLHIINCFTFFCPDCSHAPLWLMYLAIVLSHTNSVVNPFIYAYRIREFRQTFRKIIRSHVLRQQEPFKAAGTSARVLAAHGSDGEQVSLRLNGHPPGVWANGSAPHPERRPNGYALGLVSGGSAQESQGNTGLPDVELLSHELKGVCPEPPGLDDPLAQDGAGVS
Chain of adenosine A1 receptor (P30542 whole entry): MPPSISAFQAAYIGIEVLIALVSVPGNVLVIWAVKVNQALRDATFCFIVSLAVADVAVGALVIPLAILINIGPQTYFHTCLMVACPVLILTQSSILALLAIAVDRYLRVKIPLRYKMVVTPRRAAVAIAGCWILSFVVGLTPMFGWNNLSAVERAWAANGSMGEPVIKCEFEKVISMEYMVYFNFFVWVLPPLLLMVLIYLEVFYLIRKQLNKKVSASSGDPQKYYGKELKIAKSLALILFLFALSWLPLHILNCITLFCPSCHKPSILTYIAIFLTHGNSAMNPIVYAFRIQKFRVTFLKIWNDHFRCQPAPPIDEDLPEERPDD

| Structure (SMILES) | Ratio (adenosine A2B receptor) | IC50 (adenosine A2B receptor) [nM] | IC50 (adenosine A2A receptor) [nM] | IC50 (adenosine A1 receptor) [nM] | IC50 (adenosine A3 receptor) [nM] | inhibition at 10 µM [1] [%] | hepatocyte CLint [2] [µL/min/1e6 cells] | hepatocyte CLint [3] [µL/min/1e6 cells] | LM CLint [4] [μL/min/mg/protein] | LM CLint [5] [μL/min/mg/protein] |
| --- | --- | --- | --- | --- | --- | --- | --- | --- | --- | --- |
| C[C@H](Nc1nc(C(=O)N2CC(O)C2)c2sccc2n1)c1cncc(F)c1 [Example Z198, (S)-(2-((1-(5-Fluoropyridin-3-yl)ethyl)amino)thieno[3,2-d]pyrimidin-4-yl)(3-hydroxyazetidin-1-yl)methanone] | 52.81 | < 10 | 100 to 500 | > 500 | > 500 | 27 | 20.6 | 6.78 | – | – |
| CNc1cc2nc(N[C@@H](C)c3cncc(F)c3)nc(C(=O)N3CCCC3)c2s1 [Example Z210, (S)-(2-((1-(5-Fluoropyridin-3-yl)ethyl)amino)-6-(methylamino)thieno[3,2-d]pyrimidin-4-yl)(pyrrolidin-1-yl)methanone] | 162.88 | < 10 | 100 to 500 | > 500 | 50 to 100 | 46 | 51.7 | 20.3 | – | – |
| CNc1cc2nc(N[C@@H](C)c3cncc(F)c3)nc(C(=O)N3CCC3)c2s1 [Example Z211, (S)-Azetidin-1-yl(2-((1-(5-fluoropyridin-3-yl)ethyl)amino)-6-(methylamino)thieno[3,2-d]pyrimidin-4-yl)methanone] | 201.82 | < 10 | 100 to 500 | > 500 | 50 to 100 | 67 | 53.2 | 15.8 | – | – |
| Cc1cc2nc(N[C@@H](C)c3cccnc3)nc(C(=O)N3CCCC3)c2s1 [Example Z213, (S)-(6-Methyl-2-((1-(pyridin-3-yl)ethyl)amino)thieno[3,2-d]pyrimidin-4-yl)(pyrrolidin-1-yl)methanone] | 127.82 | < 10 | 100 to 500 | > 500 | > 500 | 90 | 25.3 | 59.6 | – | – |
| CNc1cc2nc(N[C@@H](C)c3cncc(F)c3)nc(C(=O)N3CC[C@@H](O)C3)c2s1 [Example Z224, (2-(((S)-1-(5-Fluoropyridin-3-yl)ethyl)amino)-6-(methylamino)thieno[3,2-d]pyrimidin-4-yl)((R)-3-hydroxypyrrolidin-1-yl)methanone] | 340.19 | < 10 | > 500 | > 500 | 50 to 100 | 52.5 | 4.61 | 16.1 | – | – |
| C[C@H](Nc1nc(C(=O)N2CC[C@H](F)C2)c2sccc2n1)c1cncc(F)c1 [Example Z225, (2-(((S)-1-(5-Fluoropyridin-3-yl)ethyl)amino)thieno[3,2-d]pyrimidin-4-yl)((S)-3-fluoropyrrolidin-1-yl)methanone] | 43.99 | < 10 | 100 to 500 | > 500 | > 500 | 57 | 21.1 | 44.5 | – | – |
| C[C@H](Nc1nc(C(=O)N2CCCC2)c2sccc2n1)c1cncc(Cl)c1 [Example Z231, (S)-(2-((1-(5-Chloropyridin-3-yl)ethyl)amino)thieno[3,2-d]pyrimidin-4-yl)(pyrrolidin-1-yl)methanone] | 88.17 | < 10 | 100 to 500 | > 500 | > 500 | 75 | 41.1 | 72.7 | – | – |
| CO[C@@H]1CCN(C(=O)c2nc(N[C@@H](C)c3cncc(F)c3)nc3ccsc23)C1 [Example Z251, (2-(((S)-1-(5-Fluoropyridin-3-yl)ethyl)amino)thieno[3,2-d]pyrimidin-4-yl)((R)-3-methoxypyrrolidin-1-yl)methanone] | 19.74 | < 10 | 100 to 500 | > 500 | > 500 | 49.1 | – | – | – | – |
| CO[C@H]1CCN(C(=O)c2nc(N[C@@H](C)c3cncc(F)c3)nc3ccsc23)C1 [Example Z252, (2-(((S)-1-(5-Fluoropyridin-3-yl)ethyl)amino)thieno[3,2-d]pyrimidin-4-yl)((S)-3-methoxypyrrolidin-1-yl)methanone] | 19.78 | 10 to 50 | 100 to 500 | > 500 | > 500 | 55.9 | – | – | – | – |
| Cc1cc2nc(N[C@@H](C)c3cncc(F)c3)nc(C(=O)NC[C@H](C)O)c2s1 [Example Z277, 2-(((S)-1-(5-Fluoropyridin-3-yl)ethyl)amino)-N—((S)-2-hydroxypropyl)-6-methylthieno[3,2-d]pyrimidine-4-carboxamide] | 167.29 | < 10 | 100 to 500 | 50 to 100 | 50 to 100 | – | 65.9 | 16.4 | – | – |
| Cc1cc2nc(N[C@@H](C)c3cncc(F)c3)nc(C(=O)NC[C@@H](C)O)c2s1 [Example Z278, 2-(((S)-1-(5-Fluoropyridin-3-yl)ethyl)amino)-N—((R)-2-hydroxypropyl)-6-methylthieno[3,2-d]pyrimidine-4-carboxamide] | 87.33 | < 10 | 50 to 100 | 50 to 100 | 50 to 100 | – | 43.3 | 14.8 | – | – |
| Cc1cc2nc(N[C@@H](C)c3cccnc3)nc(C(=O)N3CC[C@@H](O)C3)c2s1 [Example Z281, ((R)-3-Hydroxypyrrolidin-1-yl)(6-methyl-2-(((S)-1-(pyridin-3-yl)ethyl)amino)thieno[3,2-d]pyrimidin-4-yl)methanone] | 88.64 | 10 to 50 | > 500 | > 500 | > 500 | – | 18.6 | 5.45 | – | – |
| Cc1cc2nc(N[C@@H](C)c3ccccn3)nc(C(=O)N3CC[C@H](O)C3)c2s1 [Example Z282, ((S)-3-Hydroxypyrrolidin-1-yl)(6-methyl-2-(((S)-1-(pyridin-2-yl)ethyl)amino)thieno[3,2-d]pyrimidin-4-yl)methanone] | 77.76 | 10 to 50 | > 500 | > 500 | > 500 | -18.8 | 17.2 | 4.11 | – | – |
| Cc1cc2nc(N[C@@H](C)c3cccnc3)nc(C(=O)N3CCC3)c2s1 [Example Z283, (S)-Azetidin-1-yl(6-methyl-2-((1-(pyridin-3-yl)ethyl)amino)thieno[3,2-d]pyrimidin-4-yl)methanone] | 54.37 | < 10 | 100 to 500 | > 500 | > 500 | 80.5 | 42.7 | 26.5 | – | – |
| C[C@H](Nc1nc(C(=O)N2CC[C@H](CO)C2)c2sccc2n1)c1cncc(F)c1 [Example Z294, (2-(((S)-1-(5-Fluoropyridin-3-yl)ethyl)amino)thieno[3,2-d]pyrimidin-4-yl)((S)-3-(hydroxymethyl)pyrrolidin-1-yl)methanone] | 84.08 | < 10 | 100 to 500 | > 500 | > 500 | 37.6 | 17.2 | 15.6 | – | – |
| Cc1cc2nc(N[C@@H](C)c3cccnc3)nc(C(=O)N3CC[C@H](O)C3)c2s1 [Example Z297, ((S)-3-Hydroxypyrrolidin-1-yl)(6-methyl-2-(((S)-1-(pyridin-3-yl)ethyl)amino)thieno[3,2-d]pyrimidin-4-yl)methanone] | 227.82 | < 10 | > 500 | > 500 | > 500 | – | 22.6 | 3.47 | – | – |
| Cc1cc2nc(N[C@@H](C)c3ccccn3)nc(C(=O)N3CC[C@@H](O)C3)c2s1 [Example Z298, ((R)-3-Hydroxypyrrolidin-1-yl)(6-methyl-2-(((S)-1-(pyridin-2-yl)ethyl)amino)thieno[3,2-d]pyrimidin-4-yl)methanone] | 64.00 | < 10 | 100 to 500 | > 500 | > 500 | -13.9 | 18.8 | 5.35 | – | – |
| CO[C@H]1CCN(C(=O)c2nc(N[C@@H](C)c3cncc(F)c3)nc3cc(C)sc23)C1 [Example Z301, (2-(((S)-1-(5-Fluoropyridin-3-yl)ethyl)amino)-6-methylthieno[3,2-d]pyrimidin-4-yl)((S)-3-methoxypyrrolidin-1-yl)methanone] | 83.47 | < 10 | 100 to 500 | > 500 | 50 to 100 | 52 | 51.7 | 23.8 | – | – |
| C[C@H](Nc1nc(C(=O)N2CC[C@H](O)C2)c2sc(C(F)(F)F)cc2n1)c1cccnc1 [Example Z333, ((S)-3-Hydroxypyrrolidin-1-yl)(2-(((S)-1-(pyridin-3-yl)ethyl)amino)-6-(trifluoromethyl)thieno[3,2-d]pyrimidin-4-yl)methanone] | 146.28 | 10 to 50 | > 500 | > 500 | > 500 | – | 25.7 | 19.5 | – | – |
| C[C@H](Nc1nc(C(=O)N2CC(N)C2)c2sccc2n1)c1cncc(F)c1 [Example Z401, (S)-(3-Aminoazetidin-1-yl)(2-((1-(5-fluoropyridin-3-yl)ethyl)amino)thieno[3,2-d]pyrimidin-4-yl)methanone] | – | 10 to 50 | – | – | – | – | – | – | 5.32 | 2.64 |
